Test results taken from paper PMC2858983 (Clinical cancer research : an official journal of the …, 2010).
Counter-ions that a name gives are not always drawn.

Molecular target: inducible nitric oxide synthase (iNOS) (Homo sapiens, UniProt P35228)
Experiment: NO release
Assay type: cell-based

Chain of inducible nitric oxide synthase (iNOS) (P35228 whole entry): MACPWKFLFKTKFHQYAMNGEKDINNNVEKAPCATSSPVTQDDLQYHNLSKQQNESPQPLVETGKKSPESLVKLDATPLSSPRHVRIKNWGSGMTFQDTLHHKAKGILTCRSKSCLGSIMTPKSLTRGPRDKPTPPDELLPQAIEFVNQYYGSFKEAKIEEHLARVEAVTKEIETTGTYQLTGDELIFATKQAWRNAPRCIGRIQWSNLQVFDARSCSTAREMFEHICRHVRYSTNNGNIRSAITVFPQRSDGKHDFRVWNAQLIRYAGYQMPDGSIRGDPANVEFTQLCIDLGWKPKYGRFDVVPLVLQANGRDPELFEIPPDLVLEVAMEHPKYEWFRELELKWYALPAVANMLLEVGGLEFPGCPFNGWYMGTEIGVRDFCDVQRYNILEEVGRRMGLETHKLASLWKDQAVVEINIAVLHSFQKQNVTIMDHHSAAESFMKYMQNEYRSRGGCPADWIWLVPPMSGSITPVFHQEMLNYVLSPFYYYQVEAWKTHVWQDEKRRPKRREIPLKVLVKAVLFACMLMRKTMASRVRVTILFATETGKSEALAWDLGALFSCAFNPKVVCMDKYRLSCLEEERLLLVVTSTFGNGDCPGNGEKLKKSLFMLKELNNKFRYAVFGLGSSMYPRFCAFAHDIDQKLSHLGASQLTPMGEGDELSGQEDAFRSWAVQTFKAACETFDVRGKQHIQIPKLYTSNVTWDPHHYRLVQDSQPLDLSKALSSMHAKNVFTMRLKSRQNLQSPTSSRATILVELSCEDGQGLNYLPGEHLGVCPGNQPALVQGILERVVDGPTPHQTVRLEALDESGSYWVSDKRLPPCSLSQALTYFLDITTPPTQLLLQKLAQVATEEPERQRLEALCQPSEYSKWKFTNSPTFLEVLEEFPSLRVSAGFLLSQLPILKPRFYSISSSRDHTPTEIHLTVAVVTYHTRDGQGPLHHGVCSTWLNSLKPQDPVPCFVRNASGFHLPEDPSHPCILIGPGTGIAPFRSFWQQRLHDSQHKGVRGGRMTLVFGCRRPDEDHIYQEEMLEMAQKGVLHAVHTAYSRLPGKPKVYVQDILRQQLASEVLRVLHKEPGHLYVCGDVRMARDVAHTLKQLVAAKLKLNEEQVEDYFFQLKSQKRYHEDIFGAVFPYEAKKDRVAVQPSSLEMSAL

Which IC50 does the source give for `CC(=N)NCCCC[C@H](N)C(=O)O` [L-nil, N6-(1-Iminoethyl)-L-lysine-dihydrochloride] here?
The IC50 was 595 µM.
